Source: patent US10308648B2, “Inhibitors of cyclin-dependent kinase 7 (CDK7)” (Syros Pharmaceuticals, Inc., priority 2014, dated 2019)
Where a name gives a salt, the structure may show the parent alone.

Tests used:
Jurkat cells = assay: Inhibition of proliferation of Jurkat cells (CellTiter-Glo); format: cell-based; conditions: Homo sapiens, 72 hour proliferation assay
Method: Representative compounds of the invention were tested at different concentrations (from 10 μM to […]; 0.5 log serial dilutions) for their ability to inhibit the proliferation of Jurkat cells. Known CDK inhibitors flavopiridol and triptolide were used as positive controls. Cells were grown in RPMI 1640+10% FBS+1% Glutamax. The cells were supplemented with FBS (Life Technologies) and 100 U·mL^−1 penicillin, 100 μg·mL^−1 streptomycin (Invitrogen) and cultured at 37° C. in a humidified chamber in the presence of 5% CO2. Proliferation assays were conducted over a 72 hour time period. CellTiter-Glo® (Promega Corporation, Madison, Wis. USA) was used to assess the anti-proliferative effects of the compounds following manufacturer's directions and utilizing the reagents supplied with the CellTiter-Glo® kit. In this table, “A” represents an IC50 of less than 500 nM; “B” an IC50 of between 500 nM and 5 μM; and “C” an IC50 of greater than 5 μM.

CDK7 = CDK7 (Homo sapiens (Human), UniProt P50613); assay: CDK7 kinase activity (Life Technologies Adapta kinase assay); format: biochemical; conditions: 10 μM down to 0.514 nM, 3-fold serial dilutions, read-out: CDK7 Inhibition (IC50)
Method: Compounds of the invention were assayed for CDK7 activity at Life Technologies™ (Grand Island, N.Y.) using their commercially available Adapta® kinase assay services. Test compounds were tested at concentrations ranging from 10 μM down to 0.514 nM in a series of 3-fold serial dilutions. Details of this assay, including substrates used, are available on the Life Technologies web site (http://www.lifetechnologies.com/us/en/home/life-science/drug-discovery/target-and-lead-identification-and-validation/kinasebiology/kinase-activity-assays.html). The results of the assay are shown below in Table 3 where “A” represents a calculated IC50 of less than 100 nM; “B” represents a calculated IC50 of between 100 nM and 1 μM; and “C” represents a calculated IC50 of greater than 1 μM.

Chain of CDK7 (P50613 whole entry): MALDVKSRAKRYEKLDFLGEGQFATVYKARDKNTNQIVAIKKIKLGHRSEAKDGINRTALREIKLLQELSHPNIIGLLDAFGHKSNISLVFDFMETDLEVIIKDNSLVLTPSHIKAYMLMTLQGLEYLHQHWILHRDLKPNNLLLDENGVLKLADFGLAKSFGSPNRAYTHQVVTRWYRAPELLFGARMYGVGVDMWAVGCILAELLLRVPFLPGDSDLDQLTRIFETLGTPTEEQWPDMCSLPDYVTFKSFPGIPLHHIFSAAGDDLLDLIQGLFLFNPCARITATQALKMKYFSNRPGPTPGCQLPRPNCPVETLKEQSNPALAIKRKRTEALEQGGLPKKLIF
Chain of CDK7 (P51946 whole entry partner): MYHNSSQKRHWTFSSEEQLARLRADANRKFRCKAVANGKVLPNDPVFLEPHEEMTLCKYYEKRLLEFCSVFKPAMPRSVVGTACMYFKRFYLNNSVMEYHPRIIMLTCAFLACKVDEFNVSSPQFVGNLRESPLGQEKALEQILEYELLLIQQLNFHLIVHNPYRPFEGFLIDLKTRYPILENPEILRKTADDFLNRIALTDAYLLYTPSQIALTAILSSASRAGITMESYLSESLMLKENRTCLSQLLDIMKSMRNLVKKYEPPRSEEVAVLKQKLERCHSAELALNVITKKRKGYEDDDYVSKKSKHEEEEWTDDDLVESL
Chain of CDK7 (P51948 whole entry partner): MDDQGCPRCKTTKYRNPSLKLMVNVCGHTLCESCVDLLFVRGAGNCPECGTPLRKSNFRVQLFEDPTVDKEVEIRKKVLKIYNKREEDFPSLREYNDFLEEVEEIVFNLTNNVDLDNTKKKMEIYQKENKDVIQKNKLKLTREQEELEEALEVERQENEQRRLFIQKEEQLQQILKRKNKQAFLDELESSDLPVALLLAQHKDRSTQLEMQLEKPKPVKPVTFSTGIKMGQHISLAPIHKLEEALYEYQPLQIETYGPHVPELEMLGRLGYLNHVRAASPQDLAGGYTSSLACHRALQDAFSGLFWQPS

| SMILES | IC50 (Jurkat cells) [µM] | IC50 (CDK7) [µM] |
| --- | --- | --- |
| Nc1ccc(C(=O)N[C@H]2C[C@H](O)C[C@@H](Nc3ncc(Cl)c(-c4c[nH]c5ccccc45)n3)C2)cc1 (racemic) [Compound 101, (+/−)-4-amino-N-(3-(5-chloro-4-(1H-indol-3-yl)pyrimidin-2-ylamino)-5-hydroxycyclohexyl)benzamide] | 0.5 to 5 | < 0.1 |
| Nc1ccc(C(=O)NC2CC(F)CC(Nc3ncc(Cl)c(-c4c[nH]c5ccccc45)n3)C2)cc1 (racemic) [Compound 110, (+/−)-4-amino-N-(3-(5-chloro-4-(1H-indol-3-yl)pyrimidin-2-ylamino)-5-fluorocyclohexyl)benzamide] | – | 0.1 to 1 |
| Nc1ccc(C(=O)NC23CC4CC(C2)CC(Nc2ncc(Cl)c(-c5c[nH]c6ccccc56)n2)(C4)C3)cc1 [Compound 100, 4-amino-N-(3-(5-chloro-4-(1H-indol-3-yl)pyrimidin-2-ylamino)tricyclo[3.3.1.1^3,7]decanyl)benzamide] | – | > 1 |
| Nc1ccc(C(=O)N[C@H]2CCC[C@@H](Nc3ncc(Cl)c(-c4c[nH]c5ccccc45)n3)C2)cc1 [Compound 102, 4-amino-N-((1S,3R)-3-(5-chloro-4-(1H-indol-3-yl)pyrimidin-2-ylamino)cyclohexyl)benzamide] | > 5 | 0.1 to 1 |
| Nc1ccc(C(=O)N[C@H]2CCC[C@@H](Nc3ncc(C4CC4)c(-c4c[nH]c5ccccc45)n3)C2)cc1 [Compound 103, 4-amino-N-((1S,3R)-3-(5-cyclopropyl-4-(1H-indol-3-yl)pyrimidin-2-ylamino)cyclohexyl)benzamide.HCl] | > 5 | 0.1 to 1 |
| Nc1ccc(C(=O)NC23CCCC(Nc4ncc(Cl)c(-c5c[nH]c6ccccc56)n4)(C2)C3)cc1 [Compound 104, 4-amino-N-(5-(5-chloro-4-(1H-indol-3-yl)pyrimidin-2-ylamino)bicyclo[3.1.1]heptan-1-yl)benzamide] | > 5 | 0.1 to 1 |
| CN(C)CCCC(=O)Nc1ccc(C(=O)N[C@H]2CCC[C@@H](Nc3ncc(Cl)c(-c4c[nH]c5ccccc45)n3)C2)cc1 [Compound 105, N-((1S,3R)-3-((5-chloro-4-(1H-indol-3-yl)pyrimidin-2-yl)amino)cyclohexyl)-4-(4-(dimethylamino)butanamido)benzamide] | 0.5 to 5 | < 0.1 |
| Nc1ccc(NC(=O)[C@H]2CCC[C@@H](Nc3ncc(Cl)c(-c4c[nH]c5ccccc45)n3)C2)cc1 [Compound 106, (1S,3R)—N-(4-aminophenyl)-3-(5-chloro-4-(1H-indol-3-yl)pyrimidin-2-ylamino)cyclohexanecarboxamide] | > 5 | < 0.1 |
| N#Cc1cnc(N[C@@H]2CCC[C@H](NC(=O)c3ccc(N)cc3)C2)nc1-c1c[nH]c2ccccc12 [Compound 107, 4-amino-N-((1S,3R)-3-(5-cyano-4-(1H-indol-3-yl)pyrimidin-2-ylamino)cyclohexyl)benzamide] | < 0.5 | < 0.1 |
| Nc1ccc(C(=O)N[C@H]2CCC[C@@H](Nc3ncc(Cl)c(-c4cccnc4)n3)C2)cc1 [Compound 108, 4-amino-N-((1S,3R)-3-(5-chloro-4-(pyridin-3-yl)pyrimidin-2-ylamino)cyclohexyl)benzamide] | > 5 | > 1 |
| Nc1ccc(S(=O)(=O)N[C@H]2CCC[C@@H](Nc3ncc(Cl)c(-c4c[nH]c5ccccc45)n3)C2)cc1 [Compound 109, 4-amino-N-((1S,3R)-3-(5-chloro-4-(1H-indol-3-yl)pyrimidin-2-ylamino)cyclohexyl)benzenesulfonamide] | 0.5 to 5 | 0.1 to 1 |
| Nc1ccc(C(=O)N[C@H]2CCC[C@@H](Nc3ncc(Cl)c(-c4c[nH]c5ccccc45)n3)C2)cc1F [Compound 111, 4-amino-N-((1S,3R)-3-(5-chloro-4-(1H-indol-3-yl)pyrimidin-2-ylamino)cyclohexyl)-3-fluorobenzamide] | > 5 | 0.1 to 1 |
| Nc1ccc(C(=O)N[C@H]2CCC[C@@H](Nc3ncc(Cl)c(-c4c[nH]c5ccccc45)n3)C2)c(F)c1 [Compound 112, 4-amino-N-((1S,3R)-3-(5-chloro-4-(1H-indol-3-yl)pyrimidin-2-ylamino)cyclohexyl)-2-fluorobenzamide] | 0.5 to 5 | 0.1 to 1 |
| NC(=O)C(=O)Nc1ccc(C(=O)N[C@H]2CCC[C@@H](Nc3ncc(Cl)c(-c4c[nH]c5ccccc45)n3)C2)cc1 [Compound 113, N1-(4-(((1S,3R)-3-((5-chloro-4-(1H-indol-3-yl)pyrimidin-2-yl)amino)cyclohexyl)carbamoyl)phenyl)oxalamide] | 0.5 to 5 | 0.1 to 1 |
| Nc1ccc(C(=O)N[C@H]2CCC[C@@H](Nc3nccc(-c4c[nH]c5ccccc45)n3)C2)cc1 [Compound 114, N-((1S,3R)-3-(4-(1H-indol-3-yl)pyrimidin-2-ylamino)cyclohexyl)-4-aminobenzamide] | – | > 1 |
